The record followed here is US20240343704A1, “HALO-SUBSTITUTED AMINO PYRIDINE COMPOUNDS AS INHIBITORS OF THE HAEMATOPOIETIC PROGENITOR KINASE 1 (HPK1)” (priority 2021, published 2024).

Usually IC50 stands for the concentration that gives 50% inhibition.

Molecules are shown by their SMILES. Where only a bound is given, the exact number is not on record here.

The assay concerns the target T1, Recombinant (1-346) HPK1 (h) (Homo sapiens, UniProt Q92918).
T1 construct: Recombinant (1-346) HPK1 (h) is incubated with 8 mM MOPS pH 7.0
T1 sequence (Q92918 1-346): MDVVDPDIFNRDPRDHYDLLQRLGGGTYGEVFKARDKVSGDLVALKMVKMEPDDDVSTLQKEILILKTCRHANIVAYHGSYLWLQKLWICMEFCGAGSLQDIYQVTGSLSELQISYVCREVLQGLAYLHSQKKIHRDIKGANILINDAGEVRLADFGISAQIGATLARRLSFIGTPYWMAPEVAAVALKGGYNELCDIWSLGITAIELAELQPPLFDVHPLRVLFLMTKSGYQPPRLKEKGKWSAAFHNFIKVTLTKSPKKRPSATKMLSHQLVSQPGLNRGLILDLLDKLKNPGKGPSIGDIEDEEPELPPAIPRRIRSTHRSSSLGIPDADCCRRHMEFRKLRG
In words: HPK1 Human STE Kinase Enzymatic Radiometric Assay. In kind it is biochemical. To be noted: read-out: HPK1 IC50 nM Range*. The procedure: A stock solution of 10 mM of test compound is prepared in DMSO. The compound plate was prepared by 3-fold and 9-point serial dilutions. […] The reaction is initiated by The addition of the Mg/ATP mix. After incubation for 40 minutes at RT, the reaction is stopped by the addition of phosphoric acid to a concentration of 0.5%.
As for `CN(C)Cc1cc(-c2cc(-c3ccc4c(c3)CCNC4=O)c(N)nc2F)ccc1N1CCN(C2CCC2)CC1` [I-461, 6-(2-amino-5-(4-(4-cyclobutylpiperazin-1-yl)-3-((dimethylamino)methyl)phenyl)-6-fluoropyridin-3-yl)-3,4-dihydroisoquinolin-1(2H)-one], the IC50 was in the range of 0.1 to 10 nM.
The result for `CN(C)Cc1cc(-c2cc(-c3cc4c(cc3F)C(=O)NCC4)c(N)nc2F)ccc1N1CCN(C2CCC2)CC1` [I-462, 6-(2-amino-5-(4-(4-cyclobutylpiperazin-1-yl)-3-((dimethylamino)methyl)phenyl)-6-fluoropyridin-3-yl)-7-fluoro-3,4-dihydroisoquinolin-1(2H)-one] reads 0.1 to 10 nM; that for `CN1CCc2c(cccc2-c2cc(-c3ccc4c(c3)CCNC4=O)c(N)nc2F)C1` [I-463, 6-(2-amino-6-fluoro-5-(2-methyl-1,2,3,4-tetrahydroisoquinolin-5-yl)pyridin-3-yl)-3,4-dihydroisoquinolin-1(2H)-one], greater than 1000 nM.
The result for `CN1CCc2c(cccc2-c2cc(-c3cc4c(cc3F)C(=O)NCC4)c(N)nc2F)C1` [I-464, 6-(2-amino-6-fluoro-5-(2-methyl-1,2,3,4-tetrahydroisoquinolin-5-yl)pyridin-3-yl)-7-fluoro-3,4-dihydroisoquinolin-1(2H)-one] reads greater than 1000 nM; that for `Cc1nc2cc(-c3cc(-c4ccc(N5CCN(C(C)C)CC5)cc4)c(F)nc3N)ccc2c(=O)n1N` [I-465, 3-amino-7-(2-amino-6-fluoro-5-(4-(4-isopropylpiperazin-1-yl)phenyl)pyridin-3-yl)-2-methylquinazolin-4(3H)-one], 101 to 1000 nM.
The result for `CC(C)N1CCN(c2ccc(-c3cc(-c4ccc5c(=O)[nH]cc(Cl)c5c4)c(N)nc3F)cc2)CC1` [I-466, 6-(2-amino-6-fluoro-5-(4-(4-isopropylpiperazin-1-yl)phenyl)pyridin-3-yl)-4-chloroisoquinolin-1(2H)-one] reads 11 to 100 nM.
Turning to `Cc1nc2cc(-c3cc(-c4ccc(N5CCN(CCCC(F)F)CC5)cc4)c(F)nc3N)cc(F)c2c(=O)[nH]1` [I-467, 7-(2-amino-5-(4-(4-(4,4-difluorobutyl)piperazin-1-yl)phenyl)-6-fluoropyridin-3-yl)-5-fluoro-2-methylquinazolin-4(3H)-one], the IC50 lay within 0.1 to 10 nM.
`Cc1nc2cc(-c3cc(-c4ccc([C@]56C[C@H]5CN(C)C6)cc4)c(F)nc3N)ccc2c(=O)[nH]1` [I-468, 7-(2-amino-6-fluoro-5-(4-((1S,5R)-3-methyl-3-azabicyclo[3.1.0]hexan-1-yl)phenyl)pyridin-3-yl)-2-methylquinazolin-4(3H)-one]: the IC50 was 11 to 100 nM.
The result for `Cc1nc2cc(-c3cc(-c4ccc([C@]56C[C@H]5CN(C)C6)cc4)c(F)nc3N)cc(F)c2c(=O)[nH]1` [I-469, 7-(2-amino-6-fluoro-5-(4-((1S,5R)-3-methyl-3-azabicyclo[3.1.0]hexan-1-yl)phenyl)pyridin-3-yl)-5-fluoro-2-methylquinazolin-4(3H)-one] reads 11 to 100 nM; that for `CN1C[C@@H]2C[C@]2(c2ccc(-c3cc(-c4ccc5c(=O)[nH]cc(F)c5c4)c(N)nc3F)cc2)C1` [I-470, 6-(2-amino-6-fluoro-5-(4-((1S,5R)-3-methyl-3-azabicyclo[3.1.0]hexan-1-yl)phenyl)pyridin-3-yl)-4-fluoroisoquinolin-1(2H)-one], 0.1 to 10 nM; that for `Cc1c[nH]c(=O)c2ccc(-c3cc(-c4ccc([C@]56C[C@H]5CN(C)C6)cc4)c(F)nc3N)cc12` [I-471, 6-(2-amino-6-fluoro-5-(4-((1S,5R)-3-methyl-3-azabicyclo[3.1.0]hexan-1-yl)phenyl)pyridin-3-yl)-4-methylisoquinolin-1(2H)-one], 0.1 to 10 nM.
`Cc1nc2cc(-c3cc(-c4ccc(N5CCN(C6CCC6)CC5)cc4)c(F)nc3N)ccc2c(=O)[nH]1` [I-472, 7-(2-amino-5-(4-(4-cyclobutylpiperazin-1-yl)phenyl)-6-fluoropyridin-3-yl)-2-methylquinazolin-4(3H)-one]: the IC50 is 0.1 to 10 nM.
As for `Cc1nc2cc(-c3cc(-c4ccc(N5CCN(C6CCC6)CC5)cc4)c(F)nc3N)cc(F)c2c(=O)[nH]1` [I-473, 7-(2-amino-5-(4-(4-cyclobutylpiperazin-1-yl)phenyl)-6-fluoropyridin-3-yl)-5-fluoro-2-methylquinazolin-4(3H)-one], the IC50 was 0.1 to 10 nM.
`Cc1nc2cc(-c3cc(-c4ccc(N5CCOCC5)c(CN(C)C)c4)c(F)nc3N)ccc2c(=O)[nH]1` [I-474, 7-(2-amino-5-(3-((dimethylamino)methyl)-4-morpholinophenyl)-6-fluoropyridin-3-yl)-2-methylquinazolin-4(3H)-one]: the IC50 was in the range of 11 to 100 nM.
Take `Cc1nc2cc(-c3cc(-c4ccc(N5CCOCC5)c(CN(C)C)c4)c(F)nc3N)cc(F)c2c(=O)[nH]1` [I-475, 7-(2-amino-5-(3-((dimethylamino)methyl)-4-morpholinophenyl)-6-fluoropyridin-3-yl)-5-fluoro-2-methylquinazolin-4(3H)-one]: the IC50 fell in the range of 11 to 100 nM.
`Nc1nc(F)c(-c2ccc(N3CCN(CCC(F)F)CC3)cc2)cc1-c1ccc2c(c1)CCNC2=O` [I-476, 6-(2-amino-5-(4-(4-(3,3-difluoropropyl)piperazin-1-yl)phenyl)-6-fluoropyridin-3-yl)-3,4-dihydroisoquinolin-1(2H)-one]: the 50% inhibitory concentration (IC50) is 0.1 to 10 nM.
`Nc1nc(F)c(-c2ccc(N3CCN(CCC(F)F)CC3)cc2)cc1-c1cc2c(cc1F)C(=O)NCC2` [I-477, 6-(2-amino-5-(4-(4-(3,3-difluoropropyl)piperazin-1-yl)phenyl)-6-fluoropyridin-3-yl)-7-fluoro-3,4-dihydroisoquinolin-1(2H)-one]: the IC50 was in the range of 0.1 to 10 nM.
With `Nc1nc(F)c(-c2ccc(C3=CCOCC3)cc2C2CNC(=O)C2)cc1-c1cc2c(cc1F)C(=O)NCC2` (stereo not shown) [I-478, 6-(2-amino-5-(4-(3,6-dihydro-2H-pyran-4-yl)-2-(5-oxopyrrolidin-3-yl)phenyl)-6-fluoropyridin-3-yl)-7-fluoro-3,4-dihydroisoquinolin-1(2H)-one], the IC50 was greater than 1000 nM.
The result for `Nc1nc(F)c(-c2ccc(C3CCOCC3)cc2C2CNC(=O)C2)cc1-c1cc2c(cc1F)C(=O)NCC2` (stereo not shown) [I-479, 6-(2-amino-6-fluoro-5-(2-(5-oxopyrrolidin-3-yl)-4-(tetrahydro-2H-pyran-4-yl)phenyl)pyridin-3-yl)-7-fluoro-3,4-dihydroisoquinolin-1(2H)-one] reads greater than 1000 nM; that for `CN(C)Cc1cc(-c2cc(-c3ccc4c(=O)[nH]cc(F)c4c3)c(N)nc2F)ccc1N1CCOCC1` [I-480, 6-(2-amino-5-(3-((dimethylamino)methyl)-4-morpholinophenyl)-6-fluoropyridin-3-yl)-4-fluoroisoquinolin-1(2H)-one], 11 to 100 nM; that for `CC(C)N1CCN(c2ccc(-c3cc(-c4cc(F)c5c(=O)[nH]cc(F)c5c4)c(N)nc3F)cc2)CC1` [I-482, 6-(2-amino-6-fluoro-5-(4-(4-isopropylpiperazin-1-yl)phenyl)pyridin-3-yl)-4,8-difluoroisoquinolin-1(2H)-one], 0.1 to 10 nM.
For `Nc1nc(F)c(-c2ccc(N3CCN(CC4CC4)CC3)cc2)cc1-c1cc(F)c2c(=O)[nH]cc(F)c2c1` [I-483, 6-(2-amino-5-(4-(4-(cyclopropylmethyl)piperazin-1-yl)phenyl)-6-fluoropyridin-3-yl)-4,8-difluoroisoquinolin-1(2H)-one] the value was 0.1 to 10 nM; for `Cc1nc2cc(-c3cc(-c4ccc(N5CCN(CCCC(F)F)CC5)cc4)c(F)nc3N)ccc2c(=O)[nH]1` [I-484, 7-(2-amino-5-(4-(4-(4,4-difluorobutyl)piperazin-1-yl)phenyl)-6-fluoropyridin-3-yl)-2-methylquinazolin-4(3H)-one], 0.1 to 10 nM; for `Cc1nc2cc(-c3cc(-c4ccc(N5CCN(CCC(F)F)CC5)cc4)c(F)nc3N)cc(F)c2c(=O)[nH]1` [I-485, 7-(2-amino-5-(4-(4-(3,3-difluoropropyl)piperazin-1-yl)phenyl)-6-fluoropyridin-3-yl)-5-fluoro-2-methylquinazolin-4(3H)-one], 11 to 100 nM.
For `CN(C)Cc1cc(-c2cc(-c3cc(F)c4c(c3)CCNC4=O)c(N)nc2F)ccc1N1CCOCC1` [I-486, 6-(2-amino-5-(3-((dimethylamino)methyl)-4-morpholinophenyl)-6-fluoropyridin-3-yl)-8-fluoro-3,4-dihydroisoquinolin-1(2H)-one] the value was 0.1 to 10 nM; for `CN(C)Cc1cc(-c2cc(-c3ccc4c(c3)CCNC4=O)c(N)nc2F)ccc1N1CCSCC1` [I-487, 6-(2-amino-5-(3-((dimethylamino)methyl)-4-thiomorpholinophenyl)-6-fluoropyridin-3-yl)-3,4-dihydroisoquinolin-1(2H)-one], 0.1 to 10 nM.
For `CN(C)Cc1cc(-c2cc(-c3cc4c(cc3F)C(=O)NCC4)c(N)nc2F)ccc1N1CCSCC1` [I-488, 6-(2-amino-5-(3-((dimethylamino)methyl)-4-thiomorpholinophenyl)-6-fluoropyridin-3-yl)-7-fluoro-3,4-dihydroisoquinolin-1(2H)-one], the IC50 was in the range of 0.1 to 10 nM.
For `CC(C)N1CCN(c2ccc(-c3cc(-c4cc(F)c5c(=O)[nH]cc(Cl)c5c4)c(N)nc3F)cc2)CC1` [I-489, 6-(2-amino-6-fluoro-5-(4-(4-isopropylpiperazin-1-yl)phenyl)pyridin-3-yl)-4-chloro-8-fluoroisoquinolin-1(2H)-one] the value was 0.1 to 10 nM.
